This note sets out measurements from US20220213030A1, “AMINOGUANIDINE HYDRAZONES AS RETROMER STABILIZERS USEFUL FOR TREATING NEUROLOGICAL DISEASES” (OSPEDALE SAN RAFFAELE SRL, priority 2019, published 2022).

SMILES strings stand for the structures. Entries after “also recorded” stand apart in the source; their conditions may differ.

Assay [1] deals with Neuro2a cells transfected with G93A plasmids. The experiment in a line: Cell survival (CCK8) of Neuro2a transfected with G93A plasmids. The assay is classed as cell-based, mouse. The settings on record: 10 μM. The text has this: Pathological alteration of the Golgi apparatus, such as its fragmentation, has been described in many neurodegenerative disorders including ALS. Neuro2a cells transfected with plasmids encoding the G93A mutant form of the SOD1 show alteration of the Golgi transport (Soo, Halloran et al. 2015). Along the same lines, Golgi fragmentation precedes neuromuscular denervation and axon retraction in ALS mice (van Dis, Kuijpers et al. 2014). We transfected Neuro2a cells with plasmids encoding the G93A mutant form of the human SOD1 gene (hereafter G93A) in presence or in absence of compound 2a (10 μM). Cells were harvested after 48 hours, labelled for Golgin-97 and scored for the distribution of trans-Golgi. […] Of note, the fragmentation of Golgi in cells receiving G93A plasmids was not depending on Golgin97 expression levels (FIG. 3A). We speculated that Golgi fragmentation may exacerbate cell death in this cell line. Therefore, we assayed cell survival of Neuro2a transfected with G93A plasmids. Accordingly, cells were transfected with G93A plasmids or with a control plasmid encoding the LacZ. […] Rates of cell survival were similar among controls—i.e. cells receiving LacZ plasmids or compound 2a—when compared with untreated cells. On the other hand, the over-expression of G93A plasmids affected Neuro2a cell survival. […]

For assay [2], the system named is TNFα. Briefly: LPS-mediated TNFα release in Raw 264.7 cells (ELISA). The format is cell-based, murine. The conditions noted are these: 10 μM for 1 hour, then LPS 100 ng/ml, 4 hours. The text has this: We observed that the molecular structure featuring compound 2a is reminiscent of the patented compound CNI-1493 (N,N′-bis [3,5 -bis [1(aminoiminomethyl) hydrazono]ethyl]phenyl]decanediamide tetrahydrochloride (CAS Reg. No. 164301-51-3)), (FIG. 16A). CNI-1493 inhibits macrophage activation in the animal model of Multiple Sclerosis producing a general amelioration of clinical and pathological outcomes of these mice (Martiney, Rajan et al. 1998). […] CNI-1493 suppresses the production of pro-inflammatory cytokines, belonging to the plethora of detrimental signals that accompany neurodegenerative processes in several disorders. […] We followed experimental procedures published by Bianchi and colleagues that describe the ability of CNI-1493 to blunt the production of this cytokine (Bianchi, Bloom et al. 1996). Cells were incubated with CNI-1493 (10 μM) or with compound 2a (10 μM) for 1 hour and then we added the LPS (100 ng/ml) to media. We next collected supernatants (4 hours after the LPS stimulation) form cells for the evaluation of TNFα levels.
Raw 264.7 cells (10^5/well) were treated with compound 2a, CNI-1493 or vehicle for 1 hour then we applied LPS (100 ng/ml) and supernatants were collected after 4 hours. […] Concentrations of TNFα were calculated according to a standard curve and expressed as nanograms per […]. […]
(In general: ELISA stands for enzyme-linked immunosorbent assay.)

The subject of assay [3] is VPS26. Briefly: VPS26 MFI in NeuN+ MNs of G93A mice. The assay is classed as in vivo, mouse. The settings on record: 10 mg/kg, day 100. The text has this:
We next assayed retromer proteins labelling sections of mice sacrificed at day 100 for VPS35 and NeuN. […] Similarly, we observed that VPS26 levels were increased in G93A mice receiving compound 2a (FIG. 11B). We further corroborated our experimental finding observing that compound 2a increased retromer functionality. The cation-independent mannose 6-phosphate receptor (CI-MPR) is a cargo (Arighi et al., 2004) of the retromer complex that is unstable in VPS26 knockout cells (Seaman 2004). We observed a substantial reduction of CI-MPR MFI levels in MNs of vehicle-treated G93A mice when compared with WT litters (FIG. 11C). […]
Fluorescence intensity levels of VPS35, VPS26, Sortilin, CTSD and Ubiquitin were calculated using NHI-Image J software (US National Institutes of Health) according to the following protocol: stacks of confocal images were used to generate the maximal projections (Las-X) and then post-processed by NHI-Image J to crop single NeuN^+ MNs from the ventral horn of the spinal cord. We next performed background (calculated on adjacent slices only receiving secondary antibodies) subtraction for each channel, before applying the NHI-Image J mean filter (with radius 2.0 pixels) to calculate mean NeuN fluorescence levels in individual MN. […] On this selected ROI, we calculated mean fluoresce levels (MFI) of each protein.

On to `N=C(N)NN=Cc1cccc(C=NNC(=N)N)c1` [Compound 2a, 1,3-Bis-amino guanidine phenyl hydrazone], for which the “cell survival of G93A-transfected cells” value in assay [1] is “significantly reverted this phenotype”. Also, in assay [1] (VPS35 knock down), the “cell survival of cells transfected with G93A and Sh56 (VPS35 RNAi) plasmids” value was “substantially affected the capability of compound 2a to revert this phenotype”. In assay [2], the “TNFα levels in supernatants” value is “did not show any reduction of TNFα; also recorded: did not inhibit TNFα release”. In assay [3], the “VPS26 levels (MFI)” value is given as “increased”.
